These results are taken from patent US8609635B2, “Fused tricyclic silyl compounds and methods of use thereof for the treatment of viral diseases” (priority 2010, dated 2013).

The test system of experiment [1] is HCV replicon 1a (L31V) mutant. Put plainly: Cell-based HCV replicon assay (TaqMan), genotype 1a mutant L31V. The settings on record: read-out: HCV replicon EC50 1a (L31V). As to the method:
(§1) Measurement of inhibition by compounds of the present invention was performed using the HCV replicon system. Several different replicons encoding different HCV genotypes or mutations were used. In addition, potency measurements were made using different formats of the replicon assay, including different ways of measurements and different plating formats. See Jan M. Vrolijk et al., A replicons-based bioassay for the measurement of interferons in patients with chronic hepatitis C, 110 J. VIROLOGICAL METHODS 201 (2003); Steven S. Carroll et al., Inhibition of Hepatitis C Virus RNA Replication by 2′-Modified Nucleoside Analogs, 278(14) J. BIOLOGICAL […] 11979 (2003). However, the underlying principles are common to all of these determinations, and are outlined below.
(§2) Compounds of the present invention were assayed for cell-based anti-HCV activity using the following protocol. Replicon cells were seeded at 5000 cells/well in 96-well collagen I-coated Nunc plates in the presence of the test compound. Various concentrations of test compound, typically in 10 serial 2-fold dilutions, were added to the assay mixture, with the starting concentration ranging from 250 μM to 1 μM. The final concentration of DMSO was 0.5%, fetal bovine serum was 5%, in the assay media. Cells were harvested on day 3 by the addition of 1× cell lysis buffer (Ambion cat #8721). The replicon RNA level was measured using real time PCR (TaqMan® assay). The amplicon was located in 5B. The PCR primers were: 5B.2F, […] (SEQ. ID NO. 1); 5B.2R, […] (SEQ. ID NO. 2); the probe sequence was FAM-labeled […] (SEQ. ID NO. 3). GAPDH RNA was used as endogenous control and was amplified in the same reaction as NS5B (multiplex PCR) using primers and VIC-labeled probe recommended by the manufacturer (PE Applied Biosystem). The real-time RT-PCR reactions were run on ABI PRISM 7900HT Sequence Detection System using the following program: 48° C. for 30 minutes, 95° C. for 10 minutes, 40 cycles of 95° C. for 15 sec, 60° C. for 1 minute. The ΔCT values (CT5B-CTGAPDH) were plotted against the concentration of test compound and fitted to the sigmoid dose-response model using XLfit4 (MDL). […] Alternatively, to quantitate the absolute amount of replicon RNA, a standard curve was established by including serially diluted T7 transcripts of replicon RNA in the Taqman assay. All TaqMan® reagents were from PE Applied Biosystems. Such an assay procedure was described in detail in e.g. Malcolm et al., Antimicrobial Agents and Chemotherapy 50: 1013-1020 (2006).
(§3) Wherein gt1a_H77 was prepared as described in Yi et al., J Virol. 2004, 78(15):7904-15; gt1b_con1 was prepared as described in Lohmann et al., Science 1999, 285(5424):110-3; and gt2a_JFH was prepared as described in Kato et al., Gastroenterology. 2003, 125(6):1808-17. Chimeric replicons contain NS5A from patient isolates of genotypes 1a, 1b, 2b, 3a and 4a as indicated.
In general terms: In antiviral work, replicon cells carry a viral genome segment that copies itself.

The test system of experiment [2] is HCV chimeric replicon with NS5A of genotype 2b (AB03090). Put plainly: Cell-based HCV replicon assay (TaqMan), chimeric replicon genotype 2b (AB03090). The settings on record: replicon RNA by TaqMan, day 3. The procedure:
as §1, §2, §3

Experiment [3] has as its system HCV chimeric replicon with NS5A of genotype 3a (NC00982). Put plainly: Cell-based HCV replicon assay (TaqMan), chimeric replicon genotype 3a (NC00982). The settings on record: replicon RNA by TaqMan, day 3. The method, boiled down:
(§4)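 Replicon cells seeded at 5000 cells/well with compound (10 serial 2-fold dilutions from 250 μM to 1 μM top dose; 0.5% DMSO, 5% FBS) and lysed on day 3. Replicon RNA quantified by multiplex TaqMan RT-PCR (NS5B amplicon, GAPDH control); ΔCT versus concentration fitted to sigmoid dose-response. Chimeras carry patient-isolate NS5A.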

Experiment [4] deals with HCV replicon gt2a_JFH. The experiment can be described thus: Cell-based HCV replicon assay (TaqMan), genotype 2a (JFH). The settings on record: replicon 2a (JFH), replicon RNA by TaqMan, day 3. The method, boiled down: as §4
The test system of experiment [5] is HCV replicon 1a (Y93H) mutant. The experiment can be described thus: Cell-based HCV replicon assay (TaqMan), genotype 1a mutant Y93H. The settings on record: read-out: HCV replicon EC50 1a (Y93H). The method, boiled down: as §4
Experiment [6] deals with HCV replicon gt1b_con1. The experiment can be described thus: Cell-based HCV replicon assay (TaqMan), genotype 1b (Con1). The settings on record: replicon 1b (Con1), replicon RNA by TaqMan, day 3. The method, boiled down:
as §4

Experiment [7] relates to HCV chimeric replicon with NS5A of genotype 4a (DQ41878). The experiment can be described thus: Cell-based HCV replicon assay (TaqMan), chimeric replicon genotype 4a (DQ41878). The settings on record: read-out: HCV replicon EC50 4a (DQ41878). The gist of the method: as §4
Experiment [8] relates to HCV replicon gt1a_H77. The experiment can be described thus: Cell-based HCV replicon assay (TaqMan), genotype 1a (H77). The settings on record: replicon 1a (H77), replicon RNA by TaqMan, day 3. The gist of the method: as §4
Setting [9] is: Hepatitis C virus, 72 h, read-out: HCV replicon EC50 2b (AB03090), chimeric replicon 2b (AB03090).
[10] abbreviates: Hepatitis C virus, 72 h, read-out: HCV replicon EC50 3a (NC00982), chimeric replicon 3a (NC00982).

Read-outs that look alike come from different tables or passages of the source.

For `COC(=O)N[C@H](C(=O)N1C[Si](C)(C)C[C@H]1c1nc2ccc3cc(-c4ccc(-c5cnc([C@@H]6C[C@H]7C[C@H]7N6C(=O)[C@@H](NC(=O)OC)C(C)C)[nH]5)cc4)ccc3c2[nH]1)C(C)C` [Compound 97], the EC50 in experiment [1] (Hepatitis C virus, 72 h) was 15 nM; in experiment [2] (setting [9]), 17.1 nM; in experiment [3] (setting [10]) it was 0.09 nM; in experiment [4] (Hepatitis C virus, 72 h), 0.005 nM; in experiment [5] (Hepatitis C virus, 72 h), 30 nM; in experiment [6] (Hepatitis C virus, 72 h), 0.002 nM. The EC50 stood at 0.029 nM in experiment [7] (Hepatitis C virus, 72 h) and 0.005 nM in experiment [8] (Hepatitis C virus, 72 h).
With `COC(=O)N[C@H](C(=O)N1C[Si](C)(C)C[C@H]1c1ncc(-c2ccc(-c3ccc4c(ccc5nc([C@@H]6CC(F)(F)CN6C(=O)[C@@H](NC(=O)OC)C(C)C)[nH]c54)c3)cc2)[nH]1)C(C)C` [Compound 94], the half-maximal effective concentration (EC50) in experiment [1] (replicon 1a mutant L31V, replicon RNA by TaqMan, day 3) was 10 nM; in experiment [2] (read-out: HCV replicon EC50 2b (AB03090), chimeric replicon 2b (AB03090)), 129 nM; in experiment [3] (read-out: HCV replicon EC50 3a (NC00982), chimeric replicon 3a (NC00982)), 0.2 nM; in experiment [4] it was 0.03 nM; in experiment [5] (replicon 1a mutant Y93H, replicon RNA by TaqMan, day 3), 65 nM; in experiment [6] it was 0.002 nM. For the same compound, the EC50 in experiment [7] (chimeric replicon 4a (DQ41878), replicon RNA by TaqMan, day 3) worked out at 0.02 nM; in experiment [8], 0.008 nM.
Take `COC(=O)N[C@H](C(=O)N1C[Si](C)(C)C[C@H]1c1ncc(-c2ccc(-c3ccc4c(ccc5nc([C@@H]6CC(F)(F)CN6C(=O)[C@@H](NC(=O)OC)C(C)C)[nH]c54)c3)cc2)[nH]1)C(C)C` [Compound 54]: the EC50 in experiment [1] (Hepatitis C virus, 72 h) turned out to be 10 nM; in experiment [2] (setting [9]) it was 128 nM; in experiment [3] (setting [10]), 0.18 nM; in experiment [4] (Hepatitis C virus, 72 h) it was 0.03 nM; in experiment [5] (Hepatitis C virus, 72 h), 65 nM; in experiment [6] (Hepatitis C virus, 72 h), 0.002 nM. Besides, the EC50 came out at 0.02 nM in experiment [7] (Hepatitis C virus, 72 h) and 0.009 nM in experiment [8] (Hepatitis C virus, 72 h).
Take `COC(=O)N[C@H](C(=O)N1CC[C@H](C)[C@H]1c1ncc(-c2ccc(-c3ccc4c(ccc5nc([C@@H]6C[Si](C)(C)CN6C(=O)[C@@H](NC(=O)OC)C(C)C)[nH]c54)c3)cc2)[nH]1)C(C)C` [Compound 96]: the EC50 in experiment [1] (Hepatitis C virus, 72 h) came to 1 nM; in experiment [2] (setting [9]), 49.3 nM; in experiment [3] (setting [10]) it was 0.099 nM; in experiment [4] (Hepatitis C virus, 72 h), 0.013 nM; in experiment [5] (Hepatitis C virus, 72 h), 51 nM; in experiment [6] (Hepatitis C virus, 72 h) it was 0.004 nM. In addition, the EC50 was determined as 0.936 nM in experiment [7] (Hepatitis C virus, 72 h) and 0.04 nM in experiment [8] (Hepatitis C virus, 72 h).

Usually EC50 stands for the concentration giving half of the maximal effect.
